Reference: patent US6362234B1, “Water-soluble prodrugs of propofol for treatment of migrane” (Vyrex Corporation, priority 2000, dated 2002)
Structures can show the parent of a compound that is named as a salt.

Assays:
[1] = system: low density lipoprotein (LDL); experiment: Hydrogen peroxide/horseradish peroxidase-promoted oxidation of LDL (conjugated dienes); assay type: biochemical, human; conditions: 5 μM compound; 100 μg/ml LDL, 1 U horseradish peroxidase, 50 μM H2O2
Source text: (§1) The following experiment is based on the use of low density lipoprotein (LDL) as an oxidizable substrate. LDL is one of the plasma lipoproteins whose oxidation is thought to contribute to the pathogenesis of atherosclerosis. The copper-promoted, the hydrogen peroxide-/horseradish peroxidase-promoted and the myeloperoxidase-promoted oxidation of LDL are models for the free radical-induced oxidation of LDL that occurs in vivo.
(§2) LDL was isolated from heparinized plasma of normal human donors by ultracentrifugation. Most of the experiments described in this study were performed immediately after isolation. Examples and further details of the experimental procedures may be found in N. Santanam et al J. Clin Invest. 95(6):2594 (1995) and FEBS Letters, 414:549-551 (1997).
(§3) The formation of conjugated dienes was measured in a spectrophotometer (model DB-3500; SLM-AMINCO, Urbana, Ill.) equipped with a 12 position sample changer. Samples and references were measured continuously for periods of up to several hours. Typically, 100 μg/ml of LDL was incubated in PBS with 1 U horseradish peroxidase (type X, 260 U/mg) in the presence of 50 μM H2O2. For copper-mediated oxidation, 100 μg/ml LDL was incubated with 5 μM copper sulfate solution.

[2] = system: low density lipoprotein (LDL); experiment: Copper-promoted oxidation of LDL (conjugated dienes); assay type: biochemical, human; conditions: 5 μM compound; 100 μg/ml LDL, 5 μM copper sulfate
Source text: as §1, §2, §3

[3] = male, Sprague-Dawley, rat, in vivo
Description: (§4) Propofol hemisuccinate sodium salt in aqueous solution was administered to adult male Sprague-Dawley rats by gavage. Blood was collected at 2, 4, 8 and 24 hours after dosing, and analyzed by HPLC as described in example 3.

[4] = In vivo hydrolysis of propofol hemisuccinate after gavage; conditions: rats, two day observation period following the dosing
Description: as §4

mono(propofol) phosphate disodium salt [(mono)propofol phosphate]
Effect on oxidation of LDL in the presence of horseradish peroxidase/hydrogen peroxide [1]: not significantly affected
Effect on copper-promoted oxidation of LDL [2]: not significantly affected

CC(C)c1cccc(C(C)C)c1OC(=O)CCC(=O)O (as salt: succinate) [propofol hemisuccinate, 2,6-diisopropylphenyl hydrogen succinate]
melting point: 101 to 102 °C

CC(C)c1cccc(C(C)C)c1OC(=O)CCC(=O)O [propofol hemisuccinate, 2,6-diisopropylphenyl hydrogen succinate]
Time of peak blood levels of propofol after dosing [3]: 2 to 4 h
Condition of the animals after dosing [4]: All the animals remained healthy and active
